Data on 22 molecules can be found in patent US20130261077A1 (priority 2012, published 2013).

The target of the experiment is T1, FimH-CRD (Escherichia coli, UniProt P08191).
T1 construct: The first 177 amino acids of the FimH protein; thrombin tag (printed as 'fusion protein with thrombin') (cleaved yes); made in house; host or cells: bacteria (pET21b plasmid)
T1 sequence (P08191 22-177): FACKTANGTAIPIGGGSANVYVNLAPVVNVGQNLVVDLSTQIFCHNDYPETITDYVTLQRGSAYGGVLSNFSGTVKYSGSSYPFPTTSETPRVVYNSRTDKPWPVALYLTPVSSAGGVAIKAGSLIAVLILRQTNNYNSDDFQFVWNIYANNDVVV
As to the kind of experiment: Competitive binding assay by fluorescence polarization, assay 2 (compounds prepared by robotics, plates frozen and thawed). The protocol: The first 177 amino acids of the FimH protein were expressed as a fusion protein with thrombin in a pET21b plasmid in bacteria. This FimH protein sequence contains the carbohydrate recognition domain (CRD) and shall be termed FimH-CRD. Following bacterial expression of the protein, the FimH-CRD protein was purified to homogeneity and the thrombin tag removed by protease cleavage. A competitive binding assay by fluorescence polarization was performed using 5 nM of the Alexa 647 mannoside probe and 60 nM of the FimH-CRD. The samples are assayed in a low volume 384 well microtiter plate in a final volume of 20 μl. The final assay buffer conditions are the following, 50 mM Tris-Cl, ph 7.0, 100 mM NaCl, 1 mM EDTA, 5 mM β-mercaptoethanol, 0.05% BSA and 2.5% DMSO. Two assays are performed for FimH, termed assay 1 or assay 2. The assay conditions are the same for both assays except the following: assay 1 has compounds prepared by manual dilution in a serial dilution factor with 12-point dose response while assay 2 has compounds prepared by a robotics system also through a serial dilution factor (12 point dose response) and initially prepared in duplicate in 384 well-Corning polypropylene round bottom plates. The assay 2 plates have compound which is then frozen and must be thawed prior to use. Initially the Alexa 647 probe and the FimH-CRD are added to the assay buffer and then 0.5 μl of test compound (assay 1 or 2) between 0.4 nM to 75 μM final concentration are added (12 point titration with 3-fold serial dilution). Control wells for the Alexa 647 probe are prepared with the same conditions except for the addition of the FimH-CRD protein. Plates are then incubated for 5 hrs at room temperature in the dark and under humid conditions to prevent drying. Plates are read using the SpectraMax Paradigm multi-mode plate reader and the appropriate fluorescent polarization detection cartridge (Alexa-647).
Alexa 647 mannoside probe is prepared using the similar procedure reported for FAM mannoside (Han, Z. et. al., 2010, J. Med. Chem., 53, 4779) and is described in the scheme below.
To a blue colored stirred solution of (2S,3S,4S,5S,6R)-2-(4-aminobutoxy)-6-(hydroxymethyl)tetrahydropyran-3,4,5-triol (2.21 mg, 0.009 mmol) and the (2E)-2-[(2E,4E)-5-[3,3-dimethyl-5-sulfonato-1-(3-sulfonatopropyl)indol-1-ium-2-yl]penta-2,4-dienylidene]-3-[6-(2,5-dioxopyrrolidin-1-yl)oxy-6-oxo-hexyl]-3-methyl-1-(3-sulfonatopropyl)indoline-5-sulfonate (Potassium Ion (3)) (4.9 mg, 0.0044 mmol) in DMF (44 μL) is added Et3N (5.4 mg, 7.0 μL, 0.053 mmol) at RT. The solution is stirred at room temperature over night, concentrated, dissolved in water and purified on 12 g C-18 silica gel cartridge on Isolera system using acetonitrile in water (0 to 40%, 10 CV) and followed by lyophilization to afford Alexa 647 mannoside probe (3.3 mg, 34%) as deep blue solid.
The Kd values of the compounds are determined from dose response curves using twelve concentrations per compound in duplicate. Curves are fitted to data points using Fluorescence Polarization competitive displacement analysis, and Kds are interpolated from the resulting curves using GraphPad Prism software, version […] (GraphPad software Inc., San Diego, Calif., USA).
As for `CC(C)(C)OC(=O)NCc1nnc(-c2ccc(-c3cccc([C@H]4O[C@H](CO)[C@@H](O)[C@H](O)[C@@H]4O)c3)cc2)o1` [Compound 115, tert-Butyl N-[[5-[4-[3-[(2R,3S,4R,5S,6R)-3,4,5-trihydroxy-6-(hydroxymethyl)tetrahydropyran-2-yl]phenyl]phenyl]-1,3,4-oxadiazol-2-yl]methyl]carbamate], binding was put at a Kd of 24.2 ± 2.9 nM.
The molecule `Cc1cnc(-c2ccc(-c3cccc([C@H]4O[C@H](CO)[C@@H](O)[C@H](O)[C@@H]4O)c3)cc2)o1` [Compound 117, (2R,3S,4R,5S,6R)-2-(hydroxymethyl)-6-[3-[4-(5-methyloxazol-2-yl)phenyl]phenyl]tetrahydropyran-3,4,5-triol] showed a Kd of 20.9 ± 6.7 nM.
The figure for `CC(C)c1nnc(-c2ccc(-c3cccc([C@H]4O[C@H](CO)[C@@H](O)[C@H](O)[C@@H]4O)c3)cc2)o1` [Compound 118, (2R,3S,4R,5S,6R)-2-(hydroxymethyl)-6-[3-[4-(5-isopropyl-1,3,4-oxadiazol-2-yl)phenyl]phenyl]tetrahydropyran-3,4,5-triol] is 13.1 ± 0.2 nM.
The figure for `OC[C@H]1O[C@H](c2cccc(-c3ccc(-c4cnco4)cc3)c2)[C@@H](O)[C@@H](O)[C@@H]1O` [Compound 119, (2R,3S,4R,5S,6R)-2-(hydroxymethyl)-6-[3-(4-oxazol-5-ylphenyl)phenyl]tetrahydropyran-3,4,5-triol] is 19.5 ± 8.8 nM; for `OC[C@H]1O[C@H](c2cccc(-c3ccc(-c4nnc(-c5ccccn5)o4)cc3)c2)[C@@H](O)[C@@H](O)[C@@H]1O` [Compound 120, (2R,3S,4R,5S,6R)-2-(hydroxymethyl)-6-[3-[4-[5-(2-pyridyl)-1,3,4-oxadiazol-2-yl]phenyl]phenyl]tetrahydropyran-3,4,5-triol] it is 12.8 ± 2.1 nM; for `Cc1ccc(-c2nnc(-c3ccc(-c4cccc([C@H]5O[C@H](CO)[C@@H](O)[C@H](O)[C@@H]5O)c4)cc3)o2)o1` [Compound 121, (2R,3S,4R,5S,6R)-2-(hydroxymethyl)-6-[3-[4-[5-(5-methyl-2-furyl)-1,3,4-oxadiazol-2-yl]phenyl]phenyl]tetrahydropyran-3,4,5-triol] it is 13.1 ± 0.9 nM.
Under `Cn1ccc(-c2ccc(-c3cccc([C@H]4O[C@H](CO)[C@@H](O)[C@H](O)[C@@H]4O)c3)cc2)n1` [Compound 122, (2R,3S,4R,5S,6R)-2-(hydroxymethyl)-6-[3-[4-(1-methylpyrazol-3-yl)phenyl]phenyl]tetrahydropyran-3,4,5-triol] stands 27.6 ± 7.4 nM.
`Cc1nnc(-c2cccc(-c3cccc([C@H]4O[C@H](CO)[C@@H](O)[C@H](O)[C@@H]4O)c3)c2)o1` [Compound 123, (2R,3S,4R,5S,6R)-2-(hydroxymethyl)-6-[3-[3-(5-methyl-1,3,4-oxadiazol-2-yl)phenyl]phenyl]tetrahydropyran-3,4,5-triol] had a dissociation constant (Kd) of 37.1 ± 8.5 nM.
The figure for `Cn1nccc1-c1ccc(-c2cccc([C@H]3O[C@H](CO)[C@@H](O)[C@H](O)[C@@H]3O)c2)cc1` [Compound 124, (2R,3S,4R,5S,6R)-2-(hydroxymethyl)-6-[3-[4-(2-methylpyrazol-3-yl)phenyl]phenyl]tetrahydropyran-3,4,5-triol] is 16.2 ± 2 nM; for `Cc1nnc(-c2ccc(-c3cccc([C@H]4O[C@H](CO)[C@@H](O)[C@H](O)[C@@H]4O)c3)c(C)c2)o1` [Compound 125, (2R,3S,4R,5S,6R)-2-(hydroxymethyl)-6-[3-[2-methyl-4-(5-methyl-1,3,4-oxadiazol-2-yl)phenyl]phenyl]tetrahydropyran-3,4,5-triol] it is 13.9 ± 2.6 nM; for `COc1cc(-c2cccc([C@H]3O[C@H](CO)[C@@H](O)[C@H](O)[C@@H]3O)c2)ccc1-c1nnc(C)o1` [Compound 127, (2R,3S,4R,5S,6R)-2-(hydroxymethyl)-6-[3-[3-methoxy-4-(5-methyl-1,3,4-oxadiazol-2-yl)phenyl]phenyl]tetrahydropyran-3,4,5-triol] it is 17.4 ± 4.8 nM.
Under `COc1cc(-c2nnc(C)o2)ccc1-c1cccc([C@H]2O[C@H](CO)[C@@H](O)[C@H](O)[C@@H]2O)c1` [Compound 128, (2R,3S,4R,5S,6R)-2-(hydroxymethyl)-6-[3-[2-methoxy-4-(5-methyl-1,3,4-oxadiazol-2-yl)phenyl]phenyl]tetrahydropyran-3,4,5-triol] stands 74.7 ± 60.4 nM; under `Cc1nnc(-c2ccc(-c3ccc([C@H]4O[C@H](CO)[C@@H](O)[C@H](O)[C@@H]4O)cc3)cc2)o1` [Compound 129, (2R,3S,4R,5S,6R)-2-(hydroxymethyl)-6-[4-[4-(5-methyl-1,3,4-oxadiazol-2-yl)phenyl]phenyl]tetrahydropyran-3,4,5-triol], 22.9 ± 5.4 nM; under `CNC(=O)c1cc(/C=C\c2cccc([C@H]3O[C@H](CO)[C@@H](O)[C@H](O)[C@@H]3O)c2)cc(C(=O)NC)c1` [Compound 135], 22.3 ± 9.8 nM.
In turn, `CNC(=O)c1cc(/C=C/c2cccc([C@H]3O[C@H](CO)[C@@H](O)[C@H](O)[C@@H]3O)c2)cc(C(=O)NC)c1` [Compound 136] had a dissociation constant (Kd) of 19.2 ± 3.6 nM.
Under `OC[C@H]1O[C@H](c2cccc(/C=C\c3cc(Cl)cc(Cl)c3)c2)[C@@H](O)[C@@H](O)[C@@H]1O` [Compound 137, (2R,3S,4R,5S,6R)-2-[3-[(Z)-2-(3,5-dichlorophenyl)vinyl]phenyl]-6-(hydroxymethyl)tetrahydropyran-3,4,5-triol] stands 29.9 ± 15.2 nM; under `OC[C@H]1O[C@H](c2cccc(/C=C/c3cc(Cl)cc(Cl)c3)c2)[C@@H](O)[C@@H](O)[C@@H]1O` [Compound 138, (2R,3S,4R,5S,6R)-2-[3-[(E)-2-(3,5-dichlorophenyl)vinyl]phenyl]-6-(hydroxymethyl)tetrahydropyran-3,4,5-triol], 32.9 ± 6.3 nM.
Under `OC[C@H]1O[C@H](c2cccc(/C=C/c3ccccc3)c2)[C@@H](O)[C@@H](O)[C@@H]1O` [Compound 140, (2R,3S,4R,5S,6R)-2-(hydroxymethyl)-6-[3-[(E)-styryl]phenyl]tetrahydropyran-3,4,5-triol] stands 15.3 ± 3.5 nM; under `CNC(=O)c1ccc(-c2cccc([C@H]3O[C@H](CO)[C@@H](O)[C@H](O)[C@@H]3O)c2)cc1-n1cncn1` [Compound 141, N-methyl-2-(1,2,4-triazol-1-yl)-4-[3-[(2R,3S,4R,5S,6R)-3,4,5-trihydroxy-6-(hydroxymethyl)tetrahydropyran-2-yl]phenyl]benzamide], 56.2 ± 20 nM; under `COCc1cc(-c2cccc([C@H]3O[C@H](CO)[C@@H](O)[C@H](O)[C@@H]3O)c2)ccc1-c1nnc(C)o1` [Compound 142, (2R,3S,4R,5S,6R)-2-(hydroxymethyl)-6-[3-[3-(methoxymethyl)-4-(5-methyl-1,3,4-oxadiazol-2-yl)phenyl]phenyl]tetrahydropyran-3,4,5-triol], 14.8 ± 5.9 nM.
Under `Cc1nnc(-c2ccc(-c3cccc([C@H]4O[C@H](CO)[C@@H](O)[C@H](O)[C@@H]4O)c3)cc2O)o1` [Compound 143, (2R,3S,4R,5S,6R)-2-(hydroxymethyl)-6-[3-[3-hydroxy-4-(5-methyl-1,3,4-oxadiazol-2-yl)phenyl]phenyl]tetrahydropyran-3,4,5-triol] stands 11.2 ± 1 nM; under `COC(=O)c1ccc2nc(-c3cccc([C@H]4O[C@H](CO)[C@@H](O)[C@H](O)[C@@H]4O)c3)ccc2c1` [Compound 144, Methyl 2-[3-[(2R,3S,4R,5S,6R)-3,4,5-trihydroxy-6-(hydroxymethyl)tetrahydropyran-2-yl]phenyl]quinoline-6-carboxylate], 18.3 ± 7.5 nM.

What is called Kd is the concentration at which binding is half-saturated. Low values mean a tighter complex, high ones a looser complex.
